Test results taken from ChEMBL document CHEMBL1275561, “In vitro activities of doripenem, a new broad-spectrum carbapenem, against recently collected clinical anaerobic isolates, with emphasis on the Bacteroides fragilis group” (2008).

test system: Clostridium perfringens; experiment: Antimicrobial activity against Clostridium perfringens assessed as resistant isolates by agar dilution method; type: functional

Row | SMILES | Activity [%]
1 | C[C@@H](O)[C@H]1C(=O)N2C(C(=O)O)=C(S[C@@H]3CN[C@H](C(=O)Nc4cccc(C(=O)O)c4)C3)[C@H](C)[C@H]12 | 0
2 | CC1(C)S[C@@H]2[C@H](NC(=O)[C@H](N)c3ccccc3)C(=O)N2[C@H]1C(=O)O [AMPICILLIN] | 0
3 | CO[C@@]1(NC(=O)Cc2cccs2)C(=O)N2C(C(=O)O)=C(COC(N)=O)CS[C@@H]21 [CEFOXITIN] | 0
4 | CCC[C@@H]1C[C@@H](C(=O)N[C@@H]([C@H]2O[C@H](SC)[C@H](O)[C@@H](O)[C@H]2O)[C@H](C)Cl)N(C)C1 [CLINDAMYCIN] | 0
5 | C[C@@H](O)[C@H]1C(=O)N2C(C(=O)O)=C(S[C@@H]3CN[C@H](CNS(N)(=O)=O)C3)[C@H](C)[C@H]12 [DORIPENEM] | 0
6 | C[C@@H](O)[C@H]1C(=O)N2C(C(=O)O)=C(SCCNC=N)C[C@H]12 [IMIPENEM ANHYDROUS] | 0
7 | CC(=O)NC[C@H]1CN(c2ccc(N3CCOCC3)c(F)c2)C(=O)O1 [LINEZOLID] | 0
8 | C[C@@H](O)[C@H]1C(=O)N2C(C(=O)O)=C(S[C@@H]3CN[C@H](C(=O)N(C)C)C3)[C@H](C)[C@H]12 [MEROPENEM] | 0
9 | Cc1ncc([N+](=O)[O-])n1CCO [METRONIDAZOLE] | 7.8
10 | CCN1CCN(C(=O)N[C@@H](C(=O)N[C@@H]2C(=O)N3[C@@H]2SC(C)(C)[C@@H]3C(=O)O)c2ccccc2)C(=O)C1=O [PIPERACILLIN] | 0
11 | CN[C@H](CC(C)C)C(=O)N[C@H]1C(=O)N[C@@H](CC(N)=O)C(=O)N[C@H]2C(=O)N[C@H]3C(=O)N[C@H](C(=O)N[C@H](C(=O)O)c4cc(O)cc(O)c4-c4cc3ccc4O)[C@H](O)c3ccc(c(Cl)c3)Oc3cc2cc(c3O[C@@H]2O[C@H](CO)[C@@H](O)[C@H](O)[C@H]2O[C@H]2C[C@](C)(N)[C@H](O)[C@H](C)O2)Oc2ccc(cc2Cl)[C@H]1O [VANCOMYCIN] | 0
